Values joined by “and” are separate entries in the source; they are usually repeats but may differ in a detail not shown here. Equal entries are not always repeated.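 In this assay, cells in 96-well plates receive the compound at five concentrations for 48 hours. Endpoints are linearly interpolated between the surrounding concentrations. GI50 marks 50% less growth. TGI: total growth inhibition.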
Columns and labels:
Test in all cases: NCI anticancer screen, dose series, 48 h
786-0 renal = system: 786-0 renal
A498 renal = system: A498 renal
CCRF-CEM leukemia = system: CCRF-CEM leukemia
M14 melanoma = system: M14 melanoma
MCF7 breast = system: MCF7 breast
NCI/ADR-RES ovarian = system: NCI/ADR-RES ovarian
OVCAR-8 ovarian = system: OVCAR-8 ovarian
RXF 393 renal = system: RXF 393 renal
T-47D breast = system: T-47D breast
U251 CNS = system: U251 CNS

SMILES	GI50 (786-0 renal)	TGI (786-0 renal)	GI50 (A498 renal)	TGI (A498 renal)	GI50 (CCRF-CEM leukemia)	TGI (CCRF-CEM leukemia)	GI50 (M14 melanoma)	TGI (M14 melanoma)	GI50 (MCF7 breast)	TGI (MCF7 breast)	GI50 (NCI/ADR-RES ovarian)	TGI (NCI/ADR-RES ovarian)	GI50 (OVCAR-8 ovarian)	TGI (OVCAR-8 ovarian)	GI50 (RXF 393 renal)	TGI (RXF 393 renal)	GI50 (T-47D breast)	TGI (T-47D breast)	TGI (U251 CNS)	GI50 (U251 CNS)
N/C(=N\c1nc2ccccc2s1)NC(=O)Nc1cccc2ccccc12	0.603 µM	> 94.8 µM	0.347 µM	3.72 µM	0.36 µM	> 100 µM	0.23 µM	> 100 µM	0.209 µM	> 100 µM	0.144 µM	1.34 µM	0.521 µM	> 100 µM	0.2 µM	0.898 µM	0.556 µM	> 100 µM		
CCOC(=O)/C(=C\c1ccc(F)cc1)C(C)=O		49.4 µM		34.9 µM		> 100 µM		60.9 µM		96.6 µM		> 100 µM		94.6 µM		34.8 µM		63.9 µM	40.7 µM	
C[C@@H]1COC(Nc2ccc3ncnc(Nc4ccc(OCc5nccs5)c(Cl)c4)c3c2)=N1	8.31 µM and 7.15 µM	> 10 µM and 27.9 µM	3.02 µM and 0.342 µM	> 10 µM and 6.25 µM	3.55 µM and 3.46 µM	> 80.9 µM	3.16 µM and 4.12 µM	> 10 µM and 16.9 µM	4.97 µM and 5.73 µM	> 10 µM and 24 µM	2.6 µM and 2.64 µM	> 10 µM and 12 µM	2.97 µM and 2.65 µM	> 10 µM and 16.8 µM	> 10 µM and 6.81 µM	> 10 µM and 20.7 µM	0.286 µM and 1.03 µM	> 10 µM and 12.5 µM	> 10 µM and 26.6 µM	9.24 µM and 8.55 µM
Cc1cc2nc3c4cccc(O)c4n(CCN(C)C)c3nc2cc1C	3.88 µM	21.1 µM	2.09 µM	9.08 µM	1.57 µM	6.25 µM	1.63 µM	3.43 µM	1.36 µM	5.08 µM	1.97 µM	11.4 µM	1.83 µM	10.3 µM	2.48 µM	8.98 µM	3.8 µM	27.9 µM	7.72 µM	2.05 µM
CN(C)S(=O)(=O)c1ccc(Nc2ccc(O)c3c2C(=O)c2c([N+](=O)[O-])ccc(O)c2C3=O)cc1		> 100 µM		> 100 µM		44.9 µM		> 100 µM		> 100 µM		> 100 µM		> 100 µM		> 100 µM		> 100 µM	> 100 µM	
CNCCOC(=O)/C=C1/CCC2C(C(O)CC3C(C)(C(=O)OC)CCCC23C)C1C (stereo unspecified)	0.0166 µM	0.0341 µM	0.0161 µM	0.0585 µM	0.0138 µM	0.0518 µM	0.0202 µM	0.0424 µM	0.0213 µM	0.071 µM	0.0185 µM	0.0378 µM	0.018 µM	0.0331 µM	0.0156 µM	0.0521 µM	0.0294 µM	0.0762 µM	0.0341 µM	0.0183 µM
COc1ccc(-c2nc3sc4c(c3c(=O)[nH]2)CCCC4)c2ccccc12		3.8 µM		0.765 µM and 0.0871 µM		> 100 µM		0.63 µM and 0.135 µM		> 100 µM		4.95 µM and 2.75 µM	0.474 µM and 0.0475 µM	> 100 µM	0.253 µM	0.799 µM	4.82 µM and 2.85 µM	> 100 µM		0.369 µM
COc1cc2c3c(n(C)c(=O)c2cc1OC)-c1cc2c(cc1/C3=C/[C@H](N)CCCCN)OCO2	1.68 µM	18 µM	4.72 µM	22.7 µM	0.0526 µM	> 100 µM	1.59 µM	4.55 µM	0.537 µM	3.93 µM	5.19 µM	> 27.1 µM	2.27 µM	23.4 µM	3.45 µM	12.7 µM	4.85 µM	> 100 µM		
CCN1CCC(CC(=O)Nc2n[nH]c3nc(-c4cccs4)c(Br)cc23)CC1	10.7 µM	> 25 µM	7.87 µM	> 25 µM	9.57 µM	> 25 µM	6.88 µM	14.6 µM	6.29 µM	18.5 µM	> 20.7 µM	> 25 µM	11.6 µM	> 25 µM	5.51 µM	16.8 µM	12.4 µM	> 25 µM	19.4 µM	6.78 µM
CO/C(=N\N=C\c1cccc(C(F)(F)F)c1)c1ccncc1	8.71 µM	24.8 µM		42.8 µM	3.71 µM	84.1 µM		94.4 µM	7.33 µM	> 100 µM	5.37 µM		17.4 µM	> 100 µM		33.2 µM		> 100 µM	80.2 µM	
O=C1CC/C(=C\COc2ccc3ccc(=O)oc3c2)O1	2.89 µM	15.9 µM	16.8 µM	44 µM	2.42 µM	13.6 µM	3.28 µM	13.9 µM	3.61 µM	33.8 µM	14.9 µM	43 µM	16.6 µM	40.8 µM	8.41 µM	31.9 µM	4.83 µM	27.1 µM	22.8 µM	10.3 µM
CN1C(=O)C(c2c[nH]c3ccccc23)=C(c2c(-c3c[nH]c4ccccc34)[nH]c3ccccc23)C1=O	3.44 µM	14.1 µM	1.89 µM	8.12 µM	3.19 µM	12.4 µM	1.76 µM	4.79 µM	2.27 µM	6.26 µM	14.7 µM	42.8 µM	3.2 µM	11 µM	1.64 µM	6.07 µM	4.72 µM	66.8 µM	9.61 µM	3 µM
Oc1cc(Cl)ccc1Cc1ccc(Cl)cc1O	18.4 µM	38 µM	17.4 µM	31.3 µM	15.8 µM	> 100 µM	13.5 µM	26.3 µM	13.2 µM	27.9 µM	8.63 µM	25.4 µM	15.1 µM	48.8 µM	12.8 µM	28.4 µM	4.91 µM	29.3 µM	21.7 µM	6.7 µM
O=[N+]([O-])/C=C/c1ccc([N+](=O)[O-])cc1	2.02 µM	3.64 µM	2.98 µM	10.1 µM	3.63 µM	84.4 µM	1.55 µM	3.22 µM	1.84 µM	5.29 µM	8.71 µM	73.8 µM	3.68 µM	15.1 µM	1.52 µM	2.98 µM	2.78 µM	9.03 µM	3.52 µM	1.78 µM
O=C(/C=C\c1ccc2ccccc2n1)c1cc(Cl)ccc1O	4.28 µM	14.6 µM	28.9 µM	> 100 µM	2.16 µM	8.29 µM	4.92 µM	17.2 µM	6.48 µM	> 100 µM	2.6 µM	8.04 µM	3.16 µM	14.7 µM	2.3 µM	6.36 µM	3.68 µM	19 µM	5.2 µM	2.31 µM
COc1ccc2c(c1)[C@@]1(C)CCC3c4ccc(O)cc4CCC3C1C2 (stereo partly specified)	15.3 µM	29.2 µM	18.2 µM	33.3 µM	12.8 µM	45.8 µM	18.9 µM	33.5 µM	15.1 µM	30.8 µM	14.4 µM	29.3 µM	17.1 µM	38.8 µM	10.5 µM	34.5 µM	11.7 µM	26.8 µM	29.9 µM	15.6 µM
CC(C)=CC1CC(C)C2(CCC3(C)CC4C(C(=O)CC4(C)O)/C(C=O)=C\CC32)O1 (stereo unspecified)		0.0438 µM		0.979 µM		0.0422 µM		0.311 µM		0.684 µM		0.443 µM		0.214 µM		0.098 µM		0.143 µM	0.197 µM	
COc1cc(-c2n/c(=C\c3c(O)[nH]c4ccccc34)cc3c2=Nc2ccccc2-3)cc(OC)c1OC	0.864 µM	31.7 µM	0.854 µM	6.25 µM	1.12 µM	> 100 µM	0.785 µM	4.26 µM	0.363 µM	> 23.2 µM	1.62 µM	> 31.5 µM	2.53 µM	> 100 µM	0.436 µM	5.34 µM	1.14 µM	> 22.5 µM	12.1 µM	0.333 µM
COc1ccc(-c2cc(-c3nnc(SCC(=O)Nc4ccc(C(C)=O)cc4)o3)c3ccccc3n2)cc1	1.94 µM	4.95 µM	24.8 µM	72.7 µM	> 100 µM	> 100 µM	> 100 µM	> 100 µM	> 100 µM	> 100 µM	> 100 µM	> 100 µM	48.9 µM	> 100 µM	18.1 µM	57.5 µM	> 100 µM	> 100 µM	55.9 µM	10.2 µM
Cc1cc(C)c2c(N)c3cccc(C)c3nc2n1	2.35 µM	8.47 µM	1.48 µM	3.11 µM	3.84 µM	17 µM	1.58 µM	3.24 µM	2.14 µM	10.3 µM	1.54 µM	3.99 µM	1.55 µM	14.8 µM	1.64 µM	3.57 µM	2.03 µM	6.25 µM	10.6 µM	2.47 µM
C=C(C)[C@@H]1CC[C@]2(C(=O)NCCNCCNCCN)CC[C@]3(C)[C@H](CC[C@@H]4[C@@]5(C)CCC(=O)C(C)(C)[C@@H]5CC[C@]43C)[C@@H]12	7.8 µM	15.8 µM	42.6 µM	> 50 µM	9.65 µM	27.8 µM	8.38 µM	19 µM	7.38 µM	15.5 µM	8.41 µM	16.6 µM	8.41 µM	16.2 µM	5.6 µM	12.5 µM	7.52 µM	18.7 µM	14.6 µM	7.34 µM
COC(=O)[C@]12CC=C3O[C@@H]4OC5(CCCCC5)O[C@@H]4[C@H]3C1C(=O)C=CC2=O (stereo partly specified)		30.8 µM		33.6 µM		14.3 µM		32 µM		35.5 µM		38.5 µM		44.1 µM		25.8 µM		42.5 µM	36.1 µM	
COC(=O)[C@@H]1CCCN1C(=O)[C@H]1CCCN1C(=O)[C@@H](Cc1c[nH]c2ccccc12)NC(=S)Nc1cc(C(F)(F)F)cc(C(F)(F)F)c1	7.5 µM	20.2 µM	1.01 µM	7.11 µM	3.25 µM	11.3 µM	2.41 µM	5.86 µM	2.11 µM	5.37 µM	3.96 µM	21.4 µM	2.55 µM	6.4 µM	2.18 µM	7.08 µM	2.44 µM	7.53 µM	4.52 µM	1.92 µM
Cc1cc(NC(=O)NC(=O)c2ccccc2NC(=O)CN)ccc1Oc1ncc(Br)cn1	0.4 µM	24.2 µM and 17.8 µM	< 0.01 µM		0.0476 µM		0.117 µM		0.174 µM	23.3 µM and > 100 µM		12.7 µM	0.65 µM	45.7 µM and 17.8 µM	< 0.01 µM			47.4 µM	15 µM and 20.6 µM	0.409 µM
CCOC(=O)C1=C(c2ccccc2)N(c2ccc(OC)cc2)[C@]2(C#N)C(O)=C(Cl)C(Cl)=C(O)[C@]12C#N	21.8 µM	44.9 µM	35.8 µM	> 100 µM	10.1 µM	23.6 µM	20.9 µM	41.3 µM	18.7 µM	36.1 µM	15.6 µM	36.5 µM	33 µM	> 100 µM	17.4 µM	31.5 µM	21.2 µM	44.9 µM	52.5 µM	22.5 µM
COc1ccc(/C=C\c2cc(OC)c(OC)c(OC)c2)cc1OCC(=O)Nc1nc2ccc(OC(F)(F)F)cc2s1	54.3 µM	> 100 µM	3.61 µM	> 100 µM	4.12 µM	> 100 µM	4.36 µM	> 100 µM	2.89 µM	> 100 µM	2.7 µM	8.62 µM	5 µM	> 100 µM			3.95 µM	> 100 µM	> 100 µM	3.37 µM
CCCCCCCCCCCCCCCCn1cc[n+](Cc2ccccc2)c1C	0.541 µM and 0.21 µM	1.87 µM and 0.621 µM	1.69 µM and 0.421 µM	3.94 µM and 1.8 µM	0.401 µM	2.48 µM	0.425 µM	1.91 µM	1.12 µM and 0.289 µM	2.39 µM and 0.968 µM	8.02 µM and 1.55 µM	48.6 µM and 7.01 µM			0.0122 µM	0.341 µM	0.207 µM	0.951 µM		

From PubChem BioAssay (NCI)
